In brackets after ≈: the same amount, converted by molar mass. Where a SMILES comes first, the peptide text is derived from it. Where no end group is shown, it is not given here. [ ]: non-standard residue; d: D form.
Experiments:
Trichophyton rubrum = format: cell-based; conditions: 37° C. for 20 hours; tested twice, first/second value where not matched
Protocol: (§1) Further, with respect to not only the above-described strains but also various other strains, the “minimum inhibitory concentration (MIC)” was measured as follows. MIC is the lowest concentration of an agent that may inhibit the growth of a bacterium. MIC is used as a parameter for the efficacy of an antibacterial agent, for the strength of bacterial sensitivity, or the like. The bacteria can grow (proliferate) when the concentration is not higher than MIC, and cannot grow when the concentration is higher than MIC. Its measurement is carried out according to a method defined as a standard method by Japanese Society of Chemotherapy or CLINICAL AND LABORATORY […] (CLSI), but, in this Example, its measurement was carried out by a broth microdilution method in accordance with “M100-S17/M7-A7” (Performance Standards for Antimicrobial Susceptibility Testing; Seventeenth Informational Supplement, Vol. 27 No. 1) published by CLSI on January, 2007. That is, sensitivity test of agents was carried out using a microtiter plate or test tubes.
(§2) The bacteria were cultured in liquid media for 4 to 6 hours, and thereafter absorbances at A600 were measured. Bacterial suspensions were diluted with Mueller-Hinton broth (MHB) according to McFarland #0.5. Each strain was added so as to attain about 10^5 CFU/ml (final concentration). Each peptide was prepared to an optional concentration, and the solutions were serially diluted from the concentration. The polypeptide at each concentration stage was added to a microplate or test tubes, and the bacterial suspension was added thereto. Chloramphenicol, amphotericin B, ciprofloxacin, meropenem (MEPM), ciprofloxacin (CPFX), tobramycin (TOB) and oxacillin (OX) were used as positive controls. The plate was incubated at 37° C. for 20 hours, and the lowest concentration where bacterial growth was inhibited was regarded as the minimum inhibitory concentration.

Fusarium solani = format: cell-based; conditions: 37° C. for 20 hours; tested twice, first/second value where not matched
Protocol: as §1, §2

Alternaria alternata = format: cell-based; conditions: 37° C. for 20 hours; tested twice, first/second value where not matched
Protocol: as §1, §2

[1] = tested on: Trichophyton mentagrophytes; format: cell-based; conditions: 37° C. for 20 hours; tested twice, first/second value where not matched
Protocol: as §1, §2

Candida krusei = format: cell-based; conditions: 37° C. for 20 hours; tested twice, first/second value where not matched
Protocol: as §1, §2

[2] = tested on: Penicillium glabrum (Penicillium frequentans); format: cell-based; conditions: 37° C. for 20 hours; tested twice, first/second value where not matched
Protocol: as §1, §2

[3] = tested on: Staphylococcus epidermidis; experiment: MIC measurement, broth microdilution; format: cell-based; conditions: 37° C. for 20 hours, tested twice, first/second value where not matched
Protocol: as §1, §2

MRSA (clinical strain 1) = experiment: microbe, parasite or virus in culture; format: cell-based; conditions: Staphylococcus aureus, 37° C. for 20 hours, tested twice, first/second value where not matched
Protocol: as §1, §2

Staphylococcus aureus = experiment: microbe, parasite or virus in culture; format: cell-based; conditions: 37° C. for 20 hours, tested twice, first/second value where not matched
Protocol: as §1, §2

MSSA (clinical strain 1) = experiment: microbe, parasite or virus in culture; format: cell-based, Staphylococcus aureus; conditions: 37° C. for 20 hours; tested twice, first/second value where not matched
Protocol: as §1, §2

MRSA (clinical strain 2) = experiment: microbe, parasite or virus in culture; format: cell-based, Staphylococcus aureus; conditions: Staphylococcus aureus, MRSA; 37° C. for 20 hours; tested twice, first/second value where not matched
Protocol: as §1, §2

MSSA (clinical strain 2) = experiment: microbe, parasite or virus in culture; format: cell-based, Staphylococcus aureus; conditions: Staphylococcus aureus, MSSA; 37° C. for 20 hours; tested twice, first/second value where not matched
Protocol: as §1, §2

[4] = Antibacterial activity, ATP assay (BacTiter-Glo); format: cell-based, Enterobacter aerogenes; conditions: Table 7, mean values; peptides 10 μg/mL, TOB 4.0, OX 4.0, MEPM 0.5 μg/mL; 37° C. 3 hours; relative to negative control; read-out: Viability, Enterobacteria (2)
Protocol: The antibacterial activity of each of SR-08 and SR-07 polypeptides was measured using an ATP assay method. That is, using BacTiter-Glo Microbial Cell Viability Assay kit available from PROMEGA, the antibacterial activity of the peptides was evaluated from the viability of bacteria. In other words, ATP amount in viable bacteria in cases where the concentration of the peptides was 10 μg/mL was measured using a microtiter plate or test tubes. As controls, tobramycin (TOB), oxacillin (OX) and meropenem (MEPM) were used at the concentrations as respectively shown in Table 6 below.
With respect to the strains, Escherichia coli: ATCC 25922 (Escherichia coli ATCC 25922), Pseudomonas aeruginosa: ATCC 27853 (Pseudomonas aeruginosa ATCC 27853), Staphylococcus aureus: ATCC29213 (Staphylococcus aureus ATCC29213), Klebsiella pneumoniae: JCM 1662 (Klebsiella pneumoniae JCM 1662), enterobacteria (1): JCM 1232 (Enterobacter cloacae JCM 1232), and enterobacteria (2): JCM 1235 (Enterobacter aerogenes JCM 1235), were used.
The bacteria were cultured in media for 3 to 4 hours, and thereafter absorbances at A600 were measured. Bacterial suspensions were diluted with Mueller-Hinton broth (MHB) according to McFarland #0.5. Each strain was added so as to attain about 0.5-1×10^5 CFU/mL (final concentration) in terms of Escherichia coli. Each peptide was prepared and added to a microplate or test tubes so as to attain a final concentration of 10 μg/mL, and the bacterial suspension was added thereto. The plate was incubated at 37° C. for 3 hours, and the amount of ATP in the culture media was measured. Relative values were calculated by comparison with the negative control, and these values were regarded as the viability.

[5] = Stability in human serum (HPLC); format: in vitro ADME; conditions: 37° C.
Protocol: (§3) The stability of the polypeptides in serum was evaluated. In human serum (purchased from KAC Co., Ltd.), or in rat serum obtained by collecting blood from a rat, then leaving the collected blood to stand at room temperature followed by centrifugation, each of the peptides was dissolved so as to attain a final concentration of 500 μg/mL, and the obtained solutions were left to stand at 37° C. After leaving to stand for 3 min or 10 min, these solutions were subjected to HPLC chromatogram analysis to detect peaks of the decomposition products, and calculate the ratio of the concentration of the peptides which remained in the solutions relative to the starting concentration. In addition, the half-lives of the peptides in serum were also calculated.

[6] = Stability in rat serum (HPLC); format: in vitro ADME; conditions: 37° C.
Protocol: as §3

[7] = tested on: Normal human dermal fibroblasts (NHDFs); format: cell-based
Protocol: Next, the effect of these polypeptides on the growth of human umbilical vein endothelial cells (HUVECs) was studied. A cell growth activity of the polypeptides was examined using Cell Counting Kit (WST-1) available from Dojindo Laboratories. As a negative control (Control), polypeptide-free group was used. Cells (human umbilical vein endothelial cells: HUVECs) were plated in a 96-well plate (0.5×10^4 cells/well/100 μL, serum 1%). About 3 hours after plating the cells, the polypeptides (1, 3, 10, 30 or 100 μg/ml) and FGF (100 ng/ml) as a positive control were individually added thereto in an amount of 100 μL. To the unstimulated group, only a medium was added in an amount of 100 μL. The plate was left to stand in a CO2 incubator for about 48 hours. Thereafter, WST-1 reagent was added to each well in an amount of 20 μL, and then the plate was left to stand in a CO2 incubator for about 2 hours. Absorbances at wavelengths of 450 nm and 620 nm were measured using Wallac 1420 ARVOsx (Program: WST-1). A value of O.D.450-O.D.620 was calculated for each measurement. […] The cell growth activity was evaluated on the basis of the ratio of Net O.D.450 of polypeptide-containing groups relative to Net O.D.450 of the unstimulated group.
Then, the effect on the growth of normal human dermal fibroblasts (NHDFs) was also studied by the same method as described above.

[8] = tested on: Pseudomonas aeruginosa (clinical strain 6); experiment: MIC measurement, broth microdilution; format: cell-based; conditions: 37° C. for 20 hours; tested twice, first/second value where not matched
Escherichia coli = experiment: MIC measurement, broth microdilution; format: cell-based; conditions: 37° C. for 20 hours; tested twice, first/second value where not matched
Protocol: as §1, §2

[9] = tested on: Pseudomonas aeruginosa (clinical strain 9); experiment: MIC measurement, broth microdilution; format: cell-based; conditions: 37° C. for 20 hours; tested twice, first/second value where not matched
[10] = tested on: Pseudomonas aeruginosa (clinical strain 1); experiment: microbe, parasite or virus in culture; format: cell-based; conditions: 37° C. for 20 hours; tested twice, first/second value where not matched
Fusobacterium nucleatum = experiment: microbe, parasite or virus in culture; format: cell-based; conditions: 37° C. for 20 hours; tested twice, first/second value where not matched
Protocol: as §1, §2

Clostridium ramosum = experiment: microbe, parasite or virus in culture; format: cell-based; conditions: 37° C. for 20 hours; tested twice, first/second value where not matched
Protocol: as §1, §2

Acinetobacter baumanni = format: cell-based; conditions: 37° C. for 20 hours; tested twice, first/second value where not matched
Protocol: as §1, §2

Pseudomonas aeruginosa = format: cell-based; conditions: 37° C. for 20 hours; tested twice, first/second value where not matched
Protocol: as §1, §2

[11] = tested on: Pseudomonas aeruginosa (clinical strain 8); experiment: MIC measurement, broth microdilution; format: cell-based; conditions: 37° C. for 20 hours; tested twice, first/second value where not matched
[12] = tested on: Pseudomonas aeruginosa (clinical strain 12); experiment: MIC measurement, broth microdilution; format: cell-based; conditions: 37° C. for 20 hours; tested twice, first/second value where not matched

## C[C@@H]1[C@H](O)[C@@H](C)/C=C/C=C/C=C/C=C/C=C/C=C/C=C/[C@H](O[C@@H]2O[C@H](C)[C@@H](O)[C@H](N)[C@@H]2O)C[C@@H]2O[C@](O)(C[C@@H](O)C[C@@H](O)[C@H](O)CC[C@@H](O)C[C@@H](O)CC(=O)O[C@H]1C)C[C@H](O)[C@H]2C(=O)O [Amphotericin B, amphotericin B]
Trichophyton rubrum
  MIC, Trichophyton rubrum: 0.25 µg/mL (≈ 0.271 µM)
Fusarium solani
  MIC, Fusarium solani: 1 µg/mL (≈ 1.08 µM)
Alternaria alternata
  MIC, Alternaria alternata: 1 µg/mL (≈ 1.08 µM)
[1]
  MIC, Trichophyton mentagrophytes: 0.125 µg/mL (≈ 0.135 µM)
Candida krusei
  MIC, Candida krusei: 2 µg/mL (≈ 2.16 µM)
[2]
  MIC, Penicillium glabrum (Penicillium frequentans): 0.125 µg/mL (≈ 0.135 µM)

## Cc1onc(-c2ccccc2)c1C(=O)N[C@@H]1C(=O)N2[C@@H]1SC(C)(C)[C@@H]2C(=O)O [OX, oxacillin]
[3]; Staphylococcus epidermidis
  MIC: 0.15 to 0.5 µg/mL (≈ 0.374 to 1.25 µM)
MRSA (clinical strain 1)
  MIC: < 4 µg/mL
Staphylococcus aureus
  MIC: 0.15 to 0.5 µg/mL (≈ 0.374 to 1.25 µM)
MSSA (clinical strain 1)
  MIC, MSSA (clinical strain 1): 3/8
MRSA (clinical strain 2)
  MIC: > 8 µg/mL
MSSA (clinical strain 2)
  MIC: < 2 µg/mL

## CC[C@H](C)[C@H](NC(=O)[C@H](CC(C)C)NC(=O)[C@H](CCCCN)NC(=O)[C@H](CC(C)C)NC(=O)[C@@H](N)CCSC)C(=O)N[C@@H](Cc1ccccc1)C(=O)N[C@@H](CC(C)C)C(=O)N[C@@H](Cc1c[nH]cn1)C(=O)N[C@@H](CCCNC(=N)N)C(=O)N[C@@H](CC(C)C)C(=O)N[C@@H](CCCCN)C(=O)N[C@@H](CCCNC(=N)N)C(=O)N[C@@H](CCSC)C(=O)N[C@@H](CCCNC(=N)N)C(=O)N[C@@H](CCCCN)C(=O)N[C@@H](CCCNC(=N)N)C(=O)N[C@@H](CC(C)C)C(=O)N[C@H](CCCCN)C(=O)N[C@@H](CCCNC(=N)N)C(=O)N[C@@H](CCCCN)C(=O)O [SR-07] (H-MLKLIFLHRLKRMRKRL[dK]RK-OH; N-terminus and C-terminus assumed)
[4]
  viability: 16.5%
[5]; 500 μg/mL, 0 min
  Ratio of peptide remaining relative to the starting concentration, human serum, 0 min: 100
[5]; human, human serum, 3 min, read-out: Ratio of peptide remaining relative to the starting concentration, human serum, 3 min
  remaining at 0.05 h, 500 μg/mL: 98%
[5]; human, human serum, 10 min, read-out: Ratio of peptide remaining relative to the starting concentration, human serum, 10 min
  remaining at 10 min, 500 μg/mL: 64.3%
[5]; human, serum, 500 μg/mL
  half-life: 15 min
[6]; 500 μg/mL, 0 min
  Ratio of peptide remaining relative to the starting concentration, rat serum, 0 min: 100
[6]; rat, rat serum, 3 min, read-out: Ratio of peptide remaining relative to the starting concentration, rat serum, 3 min
  remaining at 0.05 h, 500 μg/mL: 51%
[6]; rat, rat serum, 10 min, read-out: Ratio of peptide remaining relative to the starting concentration, rat serum, 10 min
  remaining at 10 min, 500 μg/mL: 16.5%
[6]; rat, serum, 500 μg/mL
  half-life: 4 min
[7]
  Concentration above which the polypeptide tended to exhibit toxicity, NHDFs (FIG. 4): > 30000 ng/mL

## KNLRRIIRKIIHIIKKYG [AP00196]
[8]
  MIC, Pseudomonas aeruginosa (clinical strain 6): 32/64
[3]
  MIC, Staphylococcus epidermidis: 8/16
Escherichia coli
  MIC, Escherichia coli: 8/16
[9]
  MIC, Pseudomonas aeruginosa (clinical strain 9): 32/128
[10]
  MIC, Pseudomonas aeruginosa (clinical strain 1): 16/64
Fusobacterium nucleatum
  MIC, Fusobacterium nucleatum: 2/4
Clostridium ramosum
  MIC, Clostridium ramosum: 32/64
Fusarium solani
  MIC, Fusarium solani: 4/8
Acinetobacter baumanni
  MIC, Acinetobacter baumanni: 4/8
Pseudomonas aeruginosa
  MIC, Pseudomonas aeruginosa: 16/32
[11]
  MIC, Pseudomonas aeruginosa (clinical strain 8): 32/64
MSSA (clinical strain 1)
  MIC, MSSA (clinical strain 1): 16/32
[12]
  MIC, Pseudomonas aeruginosa (clinical strain 12): 16/32

Source: patent publication US9695219B2, “Polypeptide having antibacterial activity and angiogenesis-inducing activity and wound-healing drug containing said polypeptide” (priority 2009, dated 2017)
